ChEMBL document CHEMBL1136254, “Synthesis and SAR of 8-arylquinolines as potent corticotropin-releasing factor1 (CRF1) receptor antagonists” (Bioorg Med Chem Lett, 2003)
In brackets after ≈: the same amount, converted by molar mass.

Legend:
[1] = target: T1, Corticotropin-releasing factor receptor 1 (Homo sapiens, UniProt P34998); assay: Binding affinity towards cloned human Corticotropin releasing factor receptor 1 expressed in CHO cells using [125I]o-CRF as the radioligand; type: cell-based
T1 sequence (P34998 whole entry): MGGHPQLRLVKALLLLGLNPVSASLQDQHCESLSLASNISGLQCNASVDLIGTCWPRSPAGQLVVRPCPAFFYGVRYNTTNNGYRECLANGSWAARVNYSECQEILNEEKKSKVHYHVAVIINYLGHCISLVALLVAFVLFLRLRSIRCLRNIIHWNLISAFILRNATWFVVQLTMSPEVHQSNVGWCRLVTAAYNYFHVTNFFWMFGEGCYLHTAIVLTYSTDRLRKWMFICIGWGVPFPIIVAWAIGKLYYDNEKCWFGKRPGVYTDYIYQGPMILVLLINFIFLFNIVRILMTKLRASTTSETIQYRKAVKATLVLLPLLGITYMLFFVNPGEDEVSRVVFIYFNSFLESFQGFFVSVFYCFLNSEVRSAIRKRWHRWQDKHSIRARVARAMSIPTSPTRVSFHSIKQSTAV

[2] = target: T1, Corticotropin-releasing factor receptor 1; assay: Inhibition of Corticotropin releasing factor receptor 1-stimulated cAMP production; type: functional
[3] = pKa value was determined; type: physicochemical
[4] = Solubility at pH 4; type: physicochemical; conditions: buffer

| SMILES | Ki [1] [nM] | IC50 [2] [nM] | pKa [3] | solubility [4] [µg/mL] |
| --- | --- | --- | --- | --- |
| CCCN(CC1CC1)c1cc(C)nc2c(-c3c(C)cc(C)cc3C)cccc12 | 2.2 | – | – | – |
| CCCCN(CC)c1cc(C)nc2c(-c3ccc(Cl)cc3Cl)cccc12 | 5.7 | 51 | – | – |
| CCCN(CC1CC1)c1cc(C)nc2c(-c3ccc(Cl)cc3Cl)cccc12 | 0.5 | 16 | – | – |
| CCCN(CCC)c1cc(C)nc2c(-c3ccc(Cl)cc3)cccc12 | 8.9 | – | – | – |
| CCCN(CC1CC1)c1cc(C)nc2c(-c3ccc(Cl)cc3Cl)c(C)ccc12 | 2.5 | – | – | – |
| COCCN(CCOC)c1cc(C)nc2c(-c3c(C)cc(C)cc3C)cccc12 | 6.5 | – | – | – |
| COCCN(CCOC)c1cc(C)nc2c(-c3ccc(Cl)cc3Cl)cccc12 | 5.7 | 14 | – | – |
| CCCN(CCC)c1cc(C)nc2c(-c3ccc(OC)cc3)cccc12 | 52 | – | – | – |
| CCCN(CCC)c1cc(C)nc2c(-c3cnc(N(C)C)cc3C)c(C)nn12 | – | – | 7.1 | 10000 (≈ 26.3 mM) |
| CSc1cc(C)nc2c(-c3ccc(Cl)cc3Cl)cccc12 | 16 | – | – | – |
